Source: patent US10526389B2, “Peptides and combinations of peptides for use in immunotherapy against lung cancer, including NSCLC and other cancers” (Immatics Biotechnologies GmbH, priority 2015, dated 2020)

Key:
MHC class I = assay: MHC binding assay (UV-ligand exchange, ELISA); set-up: species or system human; settings: yield of UV-ligand exchange reaction
From the text: Candidate peptides for T cell based therapies according to the present invention were further tested for their MHC binding capacity (affinity). The individual peptide-MHC complexes were produced by UV-ligand exchange, where a UV-sensitive peptide is cleaved upon UV-irradiation, and exchanged with the peptide of interest as analyzed. Only peptide candidates that can effectively bind and stabilize the peptide-receptive MHC molecules prevent dissociation of the MHC complexes. To determine the yield of the exchange reaction, an ELISA was performed based on the detection of the light chain (62m) of stabilized MHC complexes. The assay was performed as generally described in Rodenko et al (Rodenko et al., 2006).
96 well MAXISorp plates (NUNC) were coated over night with 2 ug/ml streptavidin in PBS at room temperature, washed 4× and blocked for 1 h at 37° C. in 2% BSA containing blocking buffer. Refolded HLA-A*02:01/MLA-001 monomers served as standards, covering the range of 15-500 ng/ml. Peptide-MHC monomers of the UV-exchange reaction were diluted 100 fold in blocking buffer. Samples were incubated for 1h at 37° C., washed four times, incubated with 2 ug/ml HRP conjugated anti-62m for 1h at 37° C., washed again and detected with TMB solution that is stopped with […]. Absorption was measured at 450 nm. Candidate peptides that show a high exchange yield (preferably higher than 50%, most preferred higher than 75%) are generally preferred for a generation and production of antibodies or fragments thereof, and/or T cell receptors or fragments thereof, as they show sufficient avidity to the MHC molecules and prevent dissociation of the MHC complexes.

CD4+ T cells = assay: HLA class II T-cell proliferation assay (ProImmune, CFSE); assay type: cell-based, human; settings: 7 days; for Number of positive donors: 21 donor samples, positive = over 0.02% stimulation above background; for Number of positive donors / Strength of response: mean in % above the background: 5 μM peptide; for Strength of response: mean in % above the background: CD4+ T-cell proliferation (CFSE)
From the text: The experiments as follows summarize the results of T-cell Proliferation Assays of selected MHC class II TUMAPs. Nine of 10 tested peptide antigens tested positive for immunogenicity. […] Individual peptide antigens stimulated the CD4+ T-cell proliferation in up to 6 donors. […] Thus, it can be concluded that the newly tested peptides also have a high potential to induce T-cell responses in vaccine trials.
In order to characterize selected peptides for their potential especially as vaccine candidates, their in vitro immunogenicity was determined by analysis of T-cell proliferation using a commercial T-cell Proliferation Assay from the company ProImmune.
Healthy donor CD8-depleted blood cells samples were tested with the selected peptides. The peptides that induce the proliferation of CD4+ T cells can potentially result in the development of a helper T-cell immune response, and therefore are considered to be immunogenic. The proliferation of CD4+ T cells was determined using carboxyfluorescein succinimidyl ester (CFSE) labelling. In proliferating cells, CFSE is distributed evenly to dividing cells. Thus, the proliferation can be measured as a decrease in CFSE fluorescence in the cells as analyzed.
Peripheral blood mononuclear cell (PBMC) samples from healthy human donors were selected from the ProImmune cell bank based on HLA-DRB1 allele expression. CD8^+ T-cells were depleted from donor blood samples prior to use to avoid a false-positive response. The remaining CD4^+ T cells were labelled with CFSE and subsequently incubated with 5 μM of each selected peptide. Each peptide was tested in six replicated wells. The background was measured on each plate in six unstimulated control wells.
After an incubation period of 7 days the cells were co-stained with anti-CD4 antibody and analyzed by flow cytometry. The degree of proliferation was determined by measuring a reduction in CFSE intensity.
The evaluation of flow cytometric data was performed using FlowJo Software (Tree Star, Inc.). The results of flow cytometric analysis were expressed as the ratio of the CD4^+ dim population to the total CD4^+ population. The degree of proliferation was expressed as percentage of stimulation above background, i.e. proportion of antigen stimulated CD4^+ CFSE dim cells minus the proportion of CD4^+ CFSE dim cells from unstimulated control wells. For each sample, a mean and the corresponding standard error of the mean (SEM) of the six replicates were calculated.
Donors were chosen by HLA-DRB1 allele expression. The other two HLA class II loci (DQ and DP) have not been included into the analysis. The interesting DRB1 alleles were selected according to the frequencies of predicted peptide binding based on […] algorithm (Rammensee et al., 1999). For HLA-DR, binding was defined by a […] binding prediction score equal or greater than 18. This threshold score for binding was defined based on the analysis of binding scores of known published promiscuous HLA-DR ligands (Table 24).
All DRB1 alleles with binding frequency over 20% over all selected peptides were requested to be included into the donor panel) by ProImmune. 4 other rare DRB1 alleles (DRB1*10:01, DRB1*16:01, DRB1*08:01, and DRB1*13:03) were requested additionally.
The antigen-stimulated proliferation of CD4^+ T cells was considered as an indicator of in vitro immunogenicity and was investigated in a commercially available T-cell Proliferation Assay from ProImmune. The degree of antigen-stimulated CD4^+ T-cell proliferation was expressed as a percentage of stimulation above background. A response over 0.02% stimulation above background with SEM=2 (i.e. values two standard errors greater than background) was considered to be positive.

CD8+ T cells = assay: In vitro immunogenicity of HLA-A*24 peptides (CD8+ T-cell priming with aAPCs, multimer staining); assay type: cell-based, human
Experimental: In order to obtain information regarding the immunogenicity of the TUMAPs of the present invention, the inventors performed investigations using an in vitro T-cell priming assay based on repeated stimulations of CD8+ T cells with artificial antigen presenting cells (aAPCs) loaded with peptide/MHC complexes and anti-CD28 antibody.
Generation of pMHC/anti-CD28 coated beads, T-cell stimulations and readout was performed in a highly defined in vitro system using four different pMHC molecules per stimulation condition and 8 different pMHC molecules per readout condition.
The purified co-stimulatory mouse IgG2a anti human CD28 Ab 9.3 (Jung et al., 1987) was chemically biotinylated using Sulfo-N-hydroxysuccinimidobiotin as recommended by the manufacturer (Perbio, Bonn, Germany). Beads used were 5.6 μm diameter streptavidin coated polystyrene particles (Bangs Laboratories, Illinois, USA).
800.000 beads/200 μl were coated in 96-well plates in the presence of 4×12.5 ng different biotin-pMHC, washed and 600 ng biotin anti-CD28 were added subsequently in a volume of 200 μl. Stimulations were initiated in 96-well plates by co-incubating 1×10^6 CD8+ T cells with 2×10^5 washed coated beads in 200 μl TCM supplemented with 5 ng/ml IL-12 (PromoCell) for 3 days at 37° C. Half of the medium was then exchanged by fresh TCM supplemented with 80 U/ml IL-2 and incubating was continued for 4 days at 37° C. This stimulation cycle was performed for a total of three times. For the pMHC multimer readout using 8 different pMHC molecules per condition, a two-dimensional combinatorial coding approach was used as previously described (Andersen et al., 2012) with minor modifications encompassing coupling to 5 different fluorochromes. Finally, multimeric analyses were performed by staining the cells with Live/dead near IR dye (Invitrogen, Karlsruhe, Germany), CD8-FITC antibody clone SK1 (BD, Heidelberg, Germany) and fluorescent pMHC multimers. For analysis, a BD LSRII SORP cytometer equipped with appropriate lasers and filters was used. Peptide specific cells were calculated as percentage of total CD8+ cells. Evaluation of multimeric analysis was done using the FlowJo software (Tree Star, Oregon, USA). In vitro priming of specific multimer+CD8+ lymphocytes was detected by comparing to negative control stimulations.
Exemplary flow cytometry results after TUMAP-specific multimer staining for 3 peptides of the invention are shown in FIGS. 3A-3E together with corresponding negative controls.

Row | Substance | Number of positive donors (CD4+ T cells) | Strength of response: mean in % above the background (CD4+ T cells) [%] | further results
1 | 31 (SYLDKVRAL; listed as Homo sapiens) [compound 31] |  |  | Peptide exchange (MHC class I binding score) (MHC class I): +++ (50%-75% = +++)
2 | 45 (KFLESKGYEF; listed as Homo sapiens) [compound 45] |  |  | Peptide exchange (MHC class I binding score) (MHC class I): +++ (50%-75% = +++)
3 | 51 (NYLLESPHRF; listed as Homo sapiens) [compound 51] |  |  | Peptide exchange (MHC class I binding score) (MHC class I): +++ (50%-75% = +++)
4 | 55 (IYPVKYTQTF; listed as Homo sapiens) [compound 55] |  |  | Peptide exchange (MHC class I binding score) (MHC class I): +++ (50%-75% = +++)
5 | CEA-006: IMA910 class II peptide, positive control with known in vivo immunogenicity (SPQYSWRINGIPQQHT; listed as Homo sapiens) [reference compound] | 1 | 0.20 | 
6 | COL1A2-001 (NKPSRLPFLDIAPLDIGGAD; listed as Homo sapiens) | 2 | 0.48 | 
7 | COL5A2-001 (VARLPIIDLAPVDVGGTD; listed as Homo sapiens) | 2 | 0.21 | 
8 | COL11A1-001 (EGDIQQFLITGDPKAAYDY; listed as Homo sapiens) | 5 | 0.19 | 
9 | FN1-002: selected HLA class II peptide antigen of the T-cell proliferation assay; probably the FN1 HLA-DR peptide SEQ ID No. 93 (SRPQAPITGYRIVYSPSV; listed as Homo sapiens) |  |  | tested positive for immunogenicity (antigen-stimulated CD4+ T-cell proliferation) (CD4+ T cells; positive: >0.02% stimulation above background, 5 uM peptide): exception
10 | IGF2BP3-002 (KLYIGNLSENAAPS; listed as Homo sapiens) | 3 | 0.40 | 
11 | ITGB6-001 (NPVSQVEILKNKPLSVG; listed as Homo sapiens) | 6 | 0.23 | 
12 | LAMC2-003 (DAVQMVITEAQKVDTR; listed as Homo sapiens) | 3 | 0.27 | 
13 | LAMP3-002 (IQLIVQDKESVFSPR; listed as Homo sapiens) | 5 | 0.25 | 
14 | MMP12-007 (LSADDIRGIQSLYGDPK; listed as Homo sapiens) | 2 | 0.28 | 
15 | MMP-001: IMA910 class II peptide, positive control with known in vivo immunogenicity (SQDDIKGIQKLYGKRS; listed as Homo sapiens) [reference compound] | 2 | 0.09 | 
16 | POSTN-002 (TNGVIHVVDKLLYPADT; listed as Homo sapiens) | 2 | 0.39 | 
17 | TGFBI-004: IMA910 class II peptide, positive control with known in vivo immunogenicity (TPPIDAHTRNLLRNH; listed as Homo sapiens) [reference compound] | 2 | 0.19 | 
18 | TYNPEIYVI (listed as Homo sapiens) [SEQ ID No. 35] |  |  | in vitro immunogenicity: donors (CD8+ T cells): ++++ (>= 70% = ++++); in vitro immunogenicity: wells (CD8+ T cells): ++ (20%-49% = ++)
19 | VFMKDGFFYF (listed as Homo sapiens) [SEQ ID No. 34] |  |  | in vitro immunogenicity: donors (CD8+ T cells): ++ (20%-49% = ++); in vitro immunogenicity: wells (CD8+ T cells): + (<20% = +)
20 | VYTSWQIPQKF (listed as Homo sapiens) [SEQ ID No. 23] |  |  | in vitro immunogenicity: donors (CD8+ T cells): + (<20% = +); in vitro immunogenicity: wells (CD8+ T cells): + (<20% = +)
21 | XPR-001 (VYPLALYGF; listed as Homo sapiens) |  |  | in vitro immunogenicity: donors (CD8+ T cells): ++++ (>= 70% = ++++); in vitro immunogenicity: wells (CD8+ T cells): ++ (20%-49% = ++)
22 | YYTKGFALLNF (listed as Homo sapiens) [SEQ ID No. 29] |  |  | in vitro immunogenicity: donors (CD8+ T cells): +++ (50%-69% = +++); in vitro immunogenicity: wells (CD8+ T cells): + (<20% = +)
23 | ZBED5-001 (AYKDKDISFF; listed as Homo sapiens) |  |  | in vitro immunogenicity: donors (CD8+ T cells): ++++ (>= 70% = ++++); in vitro immunogenicity: wells (CD8+ T cells): + (<20% = +)
24 | ZNF697-001 (TYLTNHLRL; listed as Homo sapiens) |  |  | in vitro immunogenicity: donors (CD8+ T cells): ++++ (>= 70% = ++++); in vitro immunogenicity: wells (CD8+ T cells): ++ (20%-49% = ++)
